Laboratory results: PMC7395068, “The evolution of strategies to minimise the risk of human drug-induced liver injury (DILI) in drug discovery and development” (Archives of Toxicology, 2020)
Like-named read-outs stand apart in the source and are kept apart here.

Assays:
[1] = tested on: THLE-Null and THLE-3A4 cells; conditions: In vitro Assay; ref Gustafsson 2014; cited from earlier work
[2] = tested on: PHH; conditions: cited from earlier work
[3] = tested on: PHH; conditions: In vitro Assay; ref Albrecht 2019; cited from earlier work
[4] = cited from earlier work
[5] = tested on: HepG2; parameters: method as in Albrecht 2019; conditions: In vitro Assay; ref Albrecht 2019; cited from earlier work
[6] = tested on: THLE or HepG2 cells, isolated mitochondria, BSEP; conditions: cited from earlier work
[7] = plasma free fraction; cited from earlier work
[8] = Plasma free fraction (fu) and unbound Cmax (Cmax,u); type: in vitro ADME, human; conditions: unbound plasma Cmax
Method: The prediction of DILI severity was evaluated further using the 3D combined HCI assays using plasma-free fraction. The majority of fu values were obtained from literature, when unavailable in-house prediction was utilised. Unbound plasma Cmax concentrations (Cmax,u) were derived by multiplying total plasma Cmax with the corresponding free fraction (fu) for each compound.

[9] = cited from earlier work; remark: listed apart in the source
[10] = tested on: HepG2 C3A spheroid, BSEP, Glu/Gal in HepG2 cells, bioactivation; conditions: cited from earlier work
[11] = read-out: Human plasma Cmax; total plasma Cmax.tot, median of 9 literature references; cited from earlier work
[12] = tested on: hLiMTs; assay: Combined HCI (HCS) and cellular ATP 3D assay in hLiMTs; conditions: for AC50 / minimal effective concentration: Homo sapiens
[13] = tested on: HepaRG spheroids; assay: Combined HCI (HCS) and cellular ATP 3D assay in HepaRG spheroids; conditions: for AC50 / minimal effective concentration: Homo sapiens
[14] = ref Chen 2011; cited from earlier work
[15] = tested on: isolated mouse liver mitochondria; conditions: cited from earlier work
[16] = tested on: primary human hepatocytes, NIH3T3 fibroblasts, BSEP, CYP3A4; conditions: cited from earlier work; for Cellular toxicity (3T3 cells) / Combined Assay / GSH adduct HML / Hepatocyte cellular toxicity / MitoTox 3T3 / TDI CYP3A4 / hBSEP inhibition: In vitro Assay, ref Schadt 2015
[17] = tested on: hLiMTs; conditions: cited from earlier work
[18] = tested on: rBsep; conditions: In vitro Assay; ref Dawson 2012; cited from earlier work
[19] = tested on: HepG2 cells; conditions: cited from earlier work
[20] = tested on: HepG2 cells, primary human hepatocytes; conditions: In vitro Assay; ref Garside 2014; cited from earlier work
[21] = tested on: hu-MPCC; conditions: cited from earlier work
[22] = tested on: RMPCC's; conditions: cited from earlier work
[23] = tested on: HepG2 cells; conditions: In vitro Assay; ref O'Brien 2006; cited from earlier work
[24] = tested on: HepG2 cells; conditions: In vitro Assay; ref Persson 2013; cited from earlier work
[25] = tested on: human hepatocytes; conditions: In vitro Assay; ref Xu 2008; cited from earlier work
[26] = In vitro Assay, ref Proctor 2017
[27] = Modeled in vitro assays (cytotoxicity, mitochondrial dysfunction, BSEP), ref Aleo et al. 2019
[28] = Microtissue model structural based (HCI), combined HCS and ATP, MEC < 25 × Cmax.tot cut-off
[29] = In vitro Assay, ref Porceddu 2012
[30] = In vitro Assay, ref Khetani 2012

NC(=O)N1c2ccccc2C=Cc2ccccc21 [carbamazepine, reference compound]
THLE-Null [1]: -VE | THLE-Null/3A4 [1]: -VE | PHH/100xCmax, Proctor (2017) ([2]; 2D PHH, ATP, IC50 < 100 × Cmax.tot, ref Proctor et al. 2017): -VE | PHH/100uM, Proctor (2017) ([2]; 2D PHH, ATP, IC50 threshold 100 µM, ref Proctor et al. 2017): -VE | PHH ATP <100uM [2, 26]: -VE | Cytotoxicity PHH 48 hrs [3]: +VE | DILI severity category (Chen et al. [2016]) ([4]; LTKB DILIrank category, ref Chen et al. 2016): Most | DILI severity category (Chen 2016) ([4]; human DILI classification, LTKB DILIrank, ref Chen et al. 2016): Most | DILI severity category ([4]; human DILI severity, ref Chen et al.): Most | DILI +VE (5-8), DILI -VE (-4) ([4]; ref Chen 2016): +VE | DILI severity category ([4]; ref Chen 2016): vMost-DILI-Concern | Cytotoxicity HepG2 48 hrs [5]: +VE | Partition Hybrid HRM Score ([6]; In vitro Assay, ref Aleo 2019): +VE | Ro2 Hybrid HRM Score ([6]; In vitro Assay, ref Aleo 2019): +VE | Partition Hybrid HRM Score ≥4, Aleo (2019) [6, 27]: +VE (Partition Hybrid HRM Score ≥4) | Partition Hybrid HRM Score ≥8, Aleo (2019) [6, 27]: -VE | Rule of Two hybrid HRM Score ≥3, Aleo (2019) [6, 27]: +VE (Rule of Two hybrid HRM Score ≥3) | Rule of Two hybrid HRM Score ≥8, Aleo (2019) [6, 27]: -VE | fu [7]: 0.240 | Human plasma Cmax,u [8]: 12.190 µM | Assigned DILI category ([9]; Chen et al. 2016 or literature alignment, ref Chen et al. 2016): 3 | In vivo DILI ([9]; […]): +VE | In vivo DILI ([9]; ref Albrecht 2019): +VE | In vivo DILI ([9]; ref Aleo 2019): +VE | In vivo DILI ([9]; ref Dawson 2012): +VE | In vivo DILI ([9]; ref Garside 2014): +VE | In vivo DILI ([9]; ref Gustafsson 2014): +VE | In vivo DILI ([9]; ref Porceddu 2012): +VE | In vivo DILI ([9]; ref Proctor 2017): +VE | In vivo DILI ([9]; ref Schadt 2015): +VE | In vivo DILI ([9]; ref Tolosa 2012): +VE | In vivo DILI ([9]; ref Williams 2019): +VE | Bayesian Machine Learning DILI prediction, Williams (2019) ([10]; Bayesian modeling, ref Williams et al. 2019): +VE | Bayesian Machine Learning ([10]; In vitro Assay, ref Williams 2019): +VE | Cmax [11]: 50.8 µM | AC50 ([12]; read-out: ATP endpoint AC50): 145 µM | minimal effective concentration ([12]; read-out: ATP endpoint MEC): 73.6 µM | AC50 ([12]; read-out: HCS endpoint AC50): 226 µM | minimal effective concentration ([12]; read-out: HCS endpoint MEC): 109 µM | DILI prediction hLiMTs (HCS-MEC) [12, 28]: +VE (MEC < 25 × Cmax.tot cut-off) | hLiMTs <25x Avg Cmax ATP ([12]; hLiMTs, ATP endpoint, cut-off <25x Avg Cmax): +ve | hLiMTs <100x Avg Cmaxu ATP ([12]; hLiMTs, ATP endpoint, cut-off <100x Avg Cmaxu): +ve (<100x Avg Cmaxu) | hLiMTs <25x Avg Cmax HCS ([12]; hLiMTs, HCS endpoints, cut-off <25x Avg Cmax): +ve | hLiMTs <100x Avg Cmaxu HCS ([12]; hLiMTs, HCS endpoints, cut-off <100x Avg Cmaxu): +ve (<100x Avg Cmaxu) | hLiMTs <25x Avg Cmax All ([12]; hLiMTs, all endpoints (ATP and HCS), cut-off <25x Avg Cmax): +ve | hLiMTs Cmax max All ([12]; hLiMTs, all endpoints, Cmax max used): +ve | hLiMTs Cmax min All ([12]; hLiMTs, all endpoints, Cmax min used): +ve | hLiMTs <10 uM All ([12]; hLiMTs, all endpoints, cut-off <10 uM): -ve | hLiMTs <100x Avg Cmaxu All ([12]; hLiMTs, all endpoints, cut-off <100x Avg Cmaxu): +ve (<100x Avg Cmaxu) | HepaRG <25x Avg Cmax ATP ([13]; HepaRG, ATP endpoint, cut-off <25x Avg Cmax): +ve | HepaRG <100x Avg Cmaxu ATP ([13]; HepaRG, ATP endpoint, cut-off <100x Avg Cmaxu): +ve (<100x Avg Cmaxu) | HepaRG <25x Avg Cmax HCS ([13]; HepaRG, HCS endpoints, cut-off <25x Avg Cmax): +ve | HepaRG <100x Avg Cmaxu HCS ([13]; HepaRG, HCS endpoints, cut-off <100x Avg Cmaxu): +ve (<100x Avg Cmaxu) | HepaRG <25x Avg Cmax All ([13]; HepaRG, all endpoints (ATP and HCS), cut-off <25x Avg Cmax): +ve | HepaRG Cmax max All ([13]; HepaRG, all endpoints, Cmax max used): +ve | HepaRG Cmax min All ([13]; HepaRG, all endpoints, Cmax min used): +ve | HepaRG <10 uM All ([13]; HepaRG, all endpoints, cut-off <10 uM): -ve | HepaRG <100x Avg Cmaxu All ([13]; HepaRG, all endpoints, cut-off <100x Avg Cmaxu): +ve (<100x Avg Cmaxu) | AC50 ([13]; HepaRG, read-out: ATP endpoint AC50): 159 µM | minimal effective concentration ([13]; HepaRG, read-out: ATP endpoint MEC): 81.5 µM | AC50 ([13]; HepaRG, read-out: HCS endpoint AC50): 343 µM | minimal effective concentration ([13]; HepaRG, read-out: HCS endpoint MEC): 172 µM | DILI prediction HepaRG spheroids (HCS-MEC) [13, 28]: +VE (MEC < 25 × Cmax.tot cut-off) | DILI Score (FDA) (1-8) [14]: 7 | in vitro data EC2<=1x Cmax [15, 29]: +VE | in vitro data EC20<=2uM [15, 29]: +VE | DILI in vitro assay prediction, Schadt (2015) ([16]; BSEP & Metabolism based, ref Schadt et al. 2015): +VE | Cellular toxicity (3T3 cells) [16]: -VE | Combined Assay [16]: +VE | GSH adduct HML [16]: +VE | Hepatocyte cellular toxicity [16]: -VE | MitoTox 3T3 [16]: -VE | TDI CYP3A4 [16]: -VE | hBSEP inhibition [16]: -VE | hLiMTs ATP <100uM [17, 26]: -VE | hLiMTs/100xCmax, Proctor (2017) ([17]; hLiMTs, ATP, IC50 < 100 × Cmax.tot, ref Proctor et al. 2017): +VE (IC50 < 100 × Cmax.tot) | hLiMTs/100uM, Proctor (2017) ([17]; hLiMTs, ATP, IC50 threshold 100 µM, ref Proctor et al. 2017): -VE | Inhibition of rBsep cutoff<1& cmax u>.2 [18]: -VE | Inhibition of rBsep cutoff<3 [18]: -VE | Structural based (HCI) ([19]; In vitro Assay, ref Tolosa 2012): +VE | DILI in vitro assay prediction, Tolosa (2012) ([19]; Structural based (HCI), HepG2, ref Tolosa et al. 2012): +VE | Cluster 1-6 +VE Assay [20]: -VE

O=C(O)c1cn(C2CC2)c2cc(N3CCNCC3)c(F)cc2c1=O [ciprofloxacin]
HMPCC's [21]: +VE | in vitro data EC20<=2uM [15]: -VE | RMPCC's [22]: +VE

CCN(CC)CC(=O)Nc1c(C)cccc1C [lidocaine]
Structural based (HCI) [23]: +VE | Cluser analysis [24]: -VE | Structural based (HCI) [24]: -VE | HMPCC's [21, 30]: +VE | in vitro data EC20<=2uM [15, 29]: +VE | RMPCC's [22, 30]: +VE

CC(=O)Oc1ccccc1C(=O)O [aspirin]
Structural based (HCI) [23]: +VE | DILI +VE (5-8), DILI -VE (-4) ([4]; ref Chen 2016): +VE | DILI severity category ([4]; ref Chen 2016): vLess-DILI-Concern | HMPCC's [21, 30]: -VE | In vivo DILI ([9]; ref Khetani 2012): -VE | In vivo DILI ([9]; ref O'Brien 2006): +VE | In vivo DILI ([9]; ref Schadt 2015): -VE | In vivo DILI ([9]; ref Xu 2008): -VE | Structural based (HCI) [25]: -VE | RMPCC's [22, 30]: -VE | Cellular toxicity (3T3 cells) [16]: -VE | Combined Assay [16]: -VE | GSH adduct HML [16]: -VE | Hepatocyte cellular toxicity [16]: -VE | MitoTox 3T3 [16]: -VE | TDI CYP3A4 [16]: -VE | hBSEP inhibition [16]: -VE
